According to patent US20200055848A1, “FURANONE DERIVATES AND METHODS OF USE THEREOF” (CARNA BIOSCIENCES, INC., priority 2016, published 2020):

How the values were obtained:
[1] = tested on: phospho-H2AX (γ-H2AX); assay: Western blotting of phospho-H2AX in Colo-205 cells; assay type: cell-based, human; conditions: 48 h
Protocol: (§1) FIGS. 3A and 3B illustrate the effects of Cdc7 inhibition by compound 13 in Colo-205 cells. a) Western blot analysis of extracts prepared from Colo-205 cells at 48 h after treatment with DMSO control (0 μM) or compound 13 at indicated concentrations. b) […] analysis of Colo-205 cells treated for 48 h with DMSO control (0 μM) and the indicated concentration of compound 13. DNA content was measured by FACS after propidium iodide staining.
(§2) Human colon adenocarcinoma cell line Colo-205 was obtained from American Type Culture Collection (ATCC, Manassas Va.). Cells were grown in RPMI1640 supplemented with 10% FBS and 1% penicillin/streptomycin at 37° C., 5% CO2 and 95% humidity. Antibodies against Phospho-Histone H2A.X (Ser139) (no. 2577), Cleaved PARP (Asp214) (no. 9541) and MCM2 (no. 3619) were obtained from Cell signaling Technology. […]
(§3) Cells were seeded in T75 flasks (cell density, 2.25×10^6 cells/13.5 mL) and then incubated at 37° C. overnight. […] After washing with cold D-PBS, cells were scraped and lysed using a lysis buffer [RIPA Buffer (×1) containing 1% Phosphatase inhibitor Cocktail 3, 1% Phosphatase inhibitor Cocktail, and 1 mM phenylmethylsulfonyl fluoride], and the obtained samples were analyzed by western blotting. […] Each band was detected by chemiluminescence using a CCD camera (ImageQuant LAS 500, GE healthcare Ltd.).

[2] = biological target: p70S6K (Homo sapiens, UniProt P23443); assay: Kinase selectivity IC50, p70S6K; assay type: biochemical
Protocol: (§4) To investigate the representative kinase selectivity of these compounds at physiological ATP levels, compound 13 was screened over a panel of 121 kinases in the presence of 1 mM ATP with preincubation method. […] IC50 values of hit kinases were determined to confirm the selectivity of compound 13.

[3] = Half-life after intravenous administration in mice; conditions: mouse, in vivo
[4] = biological target: DYRK1B (Homo sapiens, UniProt Q9Y463); assay: Kinase selectivity IC50, DYRK1B; assay type: biochemical
Protocol: as §4

[5] = tested on: phosphorylation of MCM2 in Colo-205 cells; assay: Recovery of MCM2 phosphorylation after inhibitor washout; assay type: cell-based, human; conditions: Colo-205 cells treated 48 hours, then compound-free media
Protocol: Colo-205 cells were treated with or without compounds for 48 h. After inhibitor washout with compound-free media, the cells were lysed at the indicated time and subjected to western blot analysis.
Next, we investigated the recovery of substrate phosphorylation in cells after inhibitor washout to see whether the slow-off rate of inhibitor affects the recovery of phosphorylation. Colo-205 cells were treated for 48 hours with 13, and then, the inhibitor was washed out with compound-free media. The cells were lysed at the indicated time, and the phosphorylation status of MCM2 was analyzed by western blotting.

[6] = biological target: Erk2 (Homo sapiens, UniProt P28482); assay: Kinase selectivity IC50, Erk2; assay type: biochemical
Protocol: as §4

[7] = tested on: phosphorylation at Ser53 of MCM2; assay: Western blotting of MCM2 phosphorylation in Colo-205 cells; assay type: cell-based, human; conditions: 48 h, even at 0.1 μM
Protocol: as §1, §2, §3

[8] = biological target: CLK1 (Homo sapiens, UniProt P49759); assay: Kinase selectivity IC50, CLK1; assay type: biochemical
Protocol: as §4

[9] = tested on: HEL299; assay: Anti-proliferation activity in HEL299; assay type: cell-based; conditions: HEL 299; HEL299, derived from a human embryo lung tissue
[10] = tested on: Colo-205 cells; assay: Anti-proliferation activity in Colo-205 cells; assay type: cell-based; conditions: Homo sapiens, read-out: reduction of cell proliferation IC50
[11] = In vitro metabolic stability, human liver microsomes; assay type: in vitro ADME
Protocol: NADPH regeneration system (13 mM NADP, 33 mM Glucose-6-phospate, 33 mM MgCl2, and 4 U/mL of Glucose-6-phosphate dehydrogenase) and liver microsomes (1 mg/mL of HLM (BD Gentest, lot 18888) or MLM (BD Gentest, lot 31197)) in 0.1 M phosphate buffer (pH 7.4) were pre-incubated separately at 37° C. for 20 min before mixing with 1:4 ratio. 50 μL of the mixed solution was added to 50 μL of the test compound (2 μM) to initiate the reaction at 37° C. (final conc. 1 μM test compound, 0.4 mg/mL liver microsomes, and 1.3 mM NADPH). After 30 min, the reactions were stopped by adding 300 μL of cold acetonitrile. For 0 min samples, ice-cold acetonitrile (with system suitability standard) was treated before mixing the test compound and microsomes. The sample were vortexed well and then centrifuged at 3500 rpm at 15° C. for 20 min. 110 μL of supernatant was mixed with 110 μL of water and quantitated by LC-MS/MS workstation (Shimazu Corp.).

[12] = biological target: Erk1 (Homo sapiens, UniProt P27361); assay: Kinase selectivity IC50, Erk1; assay type: biochemical
Protocol: as §4

[13] = tested on: panel of 121 kinases; assay: Kinase selectivity screen over a panel of 121 kinases; assay type: biochemical; conditions: 1 mM ATP with preincubation
Protocol: as §4

[14] = tested on: Colo-205 cells; assay: Cell cycle analysis (flow cytometry); assay type: cell-based, human; conditions: 48 hours, 0.33 and 1 μM
Protocol: as §1
Colo-205 cells (5×10^5) were seeded in six-well plates and treated with different concentrations of a test compound. After 48 h, the cells were harvested and suspended in 0.5 mL of D-PBS. The cells were then fixed by adding 1 mL of ice-cold ethanol, and the samples were kept at −30° C. The cells were resuspended in 200 μL PI solution (20 μg/mL propydium iodide and 100 μg/mL RNaseA of D-PBS), and incubated in the dark for 1 h at room temperature. Cell cycle analyses were performed using FACS Calibur flow cytometer (BD Biosciences).

[15] = biological target: GSK3β (Homo sapiens, UniProt P49841); assay: Kinase selectivity IC50, GSK3β; assay type: biochemical
Protocol: as §4

[16] = biological target: CLK2 (Homo sapiens, UniProt P49760); assay: Kinase selectivity IC50, CLK2; assay type: biochemical
Protocol: as §4

[17] = 1 mM ATP with preincubation, mean of duplicated assays

Sequence of DYRK1B (Q9Y463 whole entry): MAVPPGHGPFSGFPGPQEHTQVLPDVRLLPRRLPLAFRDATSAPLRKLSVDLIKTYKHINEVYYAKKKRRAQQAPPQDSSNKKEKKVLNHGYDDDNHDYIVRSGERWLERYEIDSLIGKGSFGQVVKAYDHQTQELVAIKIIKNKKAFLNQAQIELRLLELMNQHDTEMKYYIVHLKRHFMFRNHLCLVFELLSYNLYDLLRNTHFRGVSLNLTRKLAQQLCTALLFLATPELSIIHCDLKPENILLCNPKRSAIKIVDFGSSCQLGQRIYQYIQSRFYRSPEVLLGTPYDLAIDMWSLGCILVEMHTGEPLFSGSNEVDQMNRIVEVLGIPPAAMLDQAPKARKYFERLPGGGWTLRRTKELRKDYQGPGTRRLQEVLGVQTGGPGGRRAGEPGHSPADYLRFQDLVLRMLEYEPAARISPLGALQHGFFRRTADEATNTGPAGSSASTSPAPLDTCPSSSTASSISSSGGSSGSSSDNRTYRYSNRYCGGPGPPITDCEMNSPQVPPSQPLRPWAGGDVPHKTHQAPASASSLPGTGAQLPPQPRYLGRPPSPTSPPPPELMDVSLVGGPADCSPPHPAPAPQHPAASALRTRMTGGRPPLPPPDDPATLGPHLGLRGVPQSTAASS
Sequence of GSK3β (P49841 whole entry): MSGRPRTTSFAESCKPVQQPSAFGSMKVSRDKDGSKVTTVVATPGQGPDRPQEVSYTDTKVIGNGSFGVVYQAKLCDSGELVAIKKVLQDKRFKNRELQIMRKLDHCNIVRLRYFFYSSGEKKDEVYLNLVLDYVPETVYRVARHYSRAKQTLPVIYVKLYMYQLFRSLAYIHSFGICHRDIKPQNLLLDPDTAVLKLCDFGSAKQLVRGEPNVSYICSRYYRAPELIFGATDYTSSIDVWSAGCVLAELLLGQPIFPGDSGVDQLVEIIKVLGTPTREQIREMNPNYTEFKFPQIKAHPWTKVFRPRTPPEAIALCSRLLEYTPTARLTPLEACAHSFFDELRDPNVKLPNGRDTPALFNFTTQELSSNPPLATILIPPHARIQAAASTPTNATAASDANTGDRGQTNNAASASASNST
Sequence of Erk2 (P28482 whole entry): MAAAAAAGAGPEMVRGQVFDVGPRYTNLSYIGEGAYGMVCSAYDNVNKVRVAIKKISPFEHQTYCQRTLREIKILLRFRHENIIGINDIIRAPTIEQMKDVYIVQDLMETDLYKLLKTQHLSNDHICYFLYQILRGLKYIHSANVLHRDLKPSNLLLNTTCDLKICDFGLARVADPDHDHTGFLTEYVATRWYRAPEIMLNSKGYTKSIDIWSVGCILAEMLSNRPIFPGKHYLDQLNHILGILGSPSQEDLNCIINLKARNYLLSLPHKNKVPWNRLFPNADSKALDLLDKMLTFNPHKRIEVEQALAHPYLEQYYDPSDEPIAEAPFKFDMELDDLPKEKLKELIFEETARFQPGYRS
Sequence of CLK1 (P49759 whole entry): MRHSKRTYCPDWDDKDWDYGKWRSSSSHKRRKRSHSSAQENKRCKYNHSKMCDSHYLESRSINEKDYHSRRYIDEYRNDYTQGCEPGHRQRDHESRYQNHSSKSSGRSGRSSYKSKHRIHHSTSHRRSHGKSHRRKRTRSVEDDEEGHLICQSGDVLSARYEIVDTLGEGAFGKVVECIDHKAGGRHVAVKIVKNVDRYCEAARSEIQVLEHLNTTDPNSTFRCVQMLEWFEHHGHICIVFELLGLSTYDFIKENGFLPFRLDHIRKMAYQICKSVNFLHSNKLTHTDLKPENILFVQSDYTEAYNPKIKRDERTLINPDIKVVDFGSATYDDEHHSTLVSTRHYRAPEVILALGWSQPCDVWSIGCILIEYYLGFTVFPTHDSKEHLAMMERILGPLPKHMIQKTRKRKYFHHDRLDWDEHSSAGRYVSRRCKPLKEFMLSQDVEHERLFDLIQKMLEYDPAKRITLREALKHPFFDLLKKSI
Sequence of p70S6K (P23443 whole entry): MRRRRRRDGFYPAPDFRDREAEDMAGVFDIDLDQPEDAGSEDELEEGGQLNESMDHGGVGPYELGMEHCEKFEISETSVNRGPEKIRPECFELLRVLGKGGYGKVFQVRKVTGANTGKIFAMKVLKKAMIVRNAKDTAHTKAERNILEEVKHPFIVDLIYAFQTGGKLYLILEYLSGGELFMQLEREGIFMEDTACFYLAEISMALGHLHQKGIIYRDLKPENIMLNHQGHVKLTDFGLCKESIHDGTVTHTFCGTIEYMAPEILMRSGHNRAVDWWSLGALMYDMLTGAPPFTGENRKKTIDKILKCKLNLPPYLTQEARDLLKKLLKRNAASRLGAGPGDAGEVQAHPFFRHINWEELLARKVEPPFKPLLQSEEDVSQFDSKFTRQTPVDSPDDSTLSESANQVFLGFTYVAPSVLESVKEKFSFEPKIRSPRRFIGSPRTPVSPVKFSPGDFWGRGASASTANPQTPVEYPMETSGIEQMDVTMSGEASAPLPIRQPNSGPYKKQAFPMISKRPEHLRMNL
Sequence of CLK2 (P49760 whole entry): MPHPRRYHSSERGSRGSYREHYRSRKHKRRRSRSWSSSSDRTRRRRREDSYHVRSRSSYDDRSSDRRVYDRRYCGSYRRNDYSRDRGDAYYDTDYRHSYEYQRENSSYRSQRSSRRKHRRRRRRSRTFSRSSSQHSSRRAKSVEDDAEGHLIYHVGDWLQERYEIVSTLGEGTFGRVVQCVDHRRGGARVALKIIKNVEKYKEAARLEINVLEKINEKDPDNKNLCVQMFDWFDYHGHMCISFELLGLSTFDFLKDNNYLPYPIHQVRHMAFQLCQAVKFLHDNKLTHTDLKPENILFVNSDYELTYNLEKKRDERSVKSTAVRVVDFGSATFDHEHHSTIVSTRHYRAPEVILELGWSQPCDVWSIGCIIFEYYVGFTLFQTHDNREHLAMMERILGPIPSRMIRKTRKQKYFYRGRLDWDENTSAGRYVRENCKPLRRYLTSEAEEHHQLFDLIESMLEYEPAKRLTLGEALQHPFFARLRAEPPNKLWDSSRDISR
Sequence of Erk1 (P27361 whole entry): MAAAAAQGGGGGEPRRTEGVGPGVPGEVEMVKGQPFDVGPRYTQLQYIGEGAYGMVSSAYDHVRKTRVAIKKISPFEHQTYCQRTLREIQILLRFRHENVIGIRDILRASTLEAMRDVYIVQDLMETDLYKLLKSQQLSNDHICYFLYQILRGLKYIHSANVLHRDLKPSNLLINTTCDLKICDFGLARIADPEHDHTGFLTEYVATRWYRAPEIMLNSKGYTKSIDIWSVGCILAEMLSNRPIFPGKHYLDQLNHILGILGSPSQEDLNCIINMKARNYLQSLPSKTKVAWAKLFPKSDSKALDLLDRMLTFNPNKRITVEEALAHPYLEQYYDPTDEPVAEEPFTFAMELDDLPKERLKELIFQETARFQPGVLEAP

## CCOC(=O)C1=C(Nc2ccccc2Cl)OC(=Cc2c[nH]c3ncccc23)C1=O [Compound 13, Ethyl 5-((1H-pyrrolo[2,3-b]pyridin-3-yl)methylene)-2-((2-chlorophenyl)amino)-4-oxo-4,5-dihydrofuran-3-carboxylate]
[1]
  DNA double strand breaks (phospho-H2AX, γ-H2AX): DNA strand breakages were observed
[2]; [17]
  IC50: 399 nM
[2]; IC50 versus Cdc7
  Fold selectivity, p70S6K: 665 fold
[3]
  half-life: 22.8 min
[4]; [17]
  IC50: 53 nM
[4]; IC50 versus Cdc7
  Fold selectivity, DYRK1B: 88 fold
[5]
  phosphorylation of MCM2 after inhibitor washout: inhibited even 24 hours after washout
[6]; [17]
  IC50: 61 nM
[6]; IC50 versus Cdc7
  Fold selectivity, Erk2: 102 fold
[7]
  inhibition of phosphorylation at Ser53 of MCM2: potently inhibited
[8]; [17]
  IC50: 5 nM
[8]; IC50 versus Cdc7
  Fold selectivity, CLK1: 8.3 fold
[9]
  IC50: 1200 nM
[10]
  IC50: 170 nM
[11]; 30 min treatment of human liver microsomes
  HLM % (remaining % of parent compound): 67%
[11]; human
  metabolic stability in human liver microsome (in words): improved metabolic stabilities
[12]; [17]
  IC50: 278 nM
[12]; IC50 versus Cdc7
  Fold selectivity, Erk1: 463 fold
[13]
  selectivity in favor of Cdc7 over CLKs: 8 fold
[13]; >50% inhibition at 0.1 μM, 121 kinases
  share of the kinase panel inhibited: 7%
[14]
  G1 phase peak: Marked decreases
  sub-G1 population: significant increase
[15]; [17]
  IC50: 51 nM
[15]; IC50 versus Cdc7
  Fold selectivity, GSK3β: 85 fold
[16]; [17]
  IC50: 5.3 nM
[16]; IC50 versus Cdc7
  Fold selectivity, CLK2: 8.8 fold
